Reference: patent publication US6964856B2, “Animal models and methods for sepsis” (priority 1999, dated 2005)

Tested on: luminescent Pseudomonas aeruginosa
Test: LD50 of luminescent Pseudomonas aeruginosa in mice, effect of anesthesia or adjuvant on virulence
Format: in vivo
Conditions: Ketamine-sedated mice; non-anesthetized mice: approximately 2.5×10^6 CFU
Excerpt: One of the factors typically determined in the calibration process is a suitable dose of pathogen for the selected model system of sepsis. This dose is preferably based on the LD50 of the pathogen in the particular animal model of sepsis being used. The LD50, or “Lethal Dose 50”, is a measure for quantifying the effects of a perturbation (e.g., a test compound, procedure, or bacterial infection) on a biological system. It represents the 50% mortality point—that is, the concentration or level of a particular perturbation at which half of the animals die by the end of the experiment.
The LD50 may change depending on the experimental parameters. The measure is therefore expressed as an LD50 for a given experimental system. By way of example, it was discovered in the course of experiments performed in support of the present invention that the type of anesthesia used to prepare the animals for imaging can have a significant effect on the LD50. Specifically, it was discovered that anesthesia induced by injectable Ketamine may potentiate the virulence of some pathogens.
For example, it was found during experiments performed in support of the present invention that pathogen virulence is boosted by administration of 5% (by volume) hog gastric mucin to the host. […]

Q: How did the “LD50 of luminescent Pseudomonas aeruginosa” value turn out when `CNC1(c2ccccc2Cl)CCCCC1=O` (stereo not shown) [Ketamine] was run?
A: ~4.6×10^5 CFU
